What all share (test): Cell proliferation panel assay
Holding throughout (format): cell-based

The test system of experiment [1] is Colo 320DM. To be noted: Homo sapiens, 72 h, Colorectal carcinoma, 3-day incubation, read-out: Cell Count IC50.
Experiment [2] has as its system A498. To be noted: Homo sapiens, 72 h, A498, Renal cell carcinoma, 3-day incubation. The protocol:
(§1) Cells were grown in RPMI 1640, 10% FBS, 2 mM L-alanyl-L-glutamine, 1 mM Na pyruvate or a special medium. Cells were seeded into 384-well plates and incubated in a humidified atmosphere of 5% CO2 at 37° C. Compounds were added the day following cell seeding. At the same time, a time zero untreated cell plate was generated. After a 3-day incubation period, cells were fixed and stained to allow fluorescence imaging of nuclei.
(§2) Compounds were serially diluted in half-log steps from the highest test concentration 10 μM, and assayed over 10 concentrations with a maximum assay concentration of 0.1% DMSO. Automated fluorescence microscopy was carried out using a Molecular Devices ImageXpress Micro XL high-content imager, and images were collected with a 4× objective. 16-bit TIFF images were acquired and analyzed with MetaXpress 5.1.0.41 software.
(§3) Cell proliferation was measured by the fluorescence intensity of an incorporated nuclear dye. The output is referred to as the relative cell count, where the measured nuclear intensity is transformed to percent of control (POC) using the following formula: […]
(§4) Cellular response parameters were calculated using nonlinear regression to a sigmoidal single-site dose response model:
(§5) Where y is a response measured at concentration x, A and B are the lower and upper limits of the response, C is the concentration at the response midpoint (EC50), and D is the Hill Slope (Fallahi-Sichani, M., S. Honardejad, L. M. Heiser, J. W. Gray, and P. K. Sorger (2013). Metrics other than potency reveal systematic variation in responses to cancer drugs. Nat. Chem. Biol. 9: 708-714.).
(§6) Cell count IC50 is the test compound concentration at 50% of maximal possible response. EC50 is the test compound concentration at the curve inflection point or half the effective response (parameter C of the fitted curve solution).

The subject of experiment [3] is PANC-1. The settings on record: Homo sapiens, 72 h, PANC-1, Pancreatic cancer, 3-day incubation. Here is the method: as §1, §2, §3, §4, §5, §6
In experiment [4] the test system is ARH-77. To be noted: Homo sapiens, 72 h; ARH-77, Leukemia, 3-day incubation; read-out: Cell Count EC50.
In experiment [5] the test system is CEM-C1. The settings on record: 72 h; CEM-C1, Leukemia, 3-day incubation; read-out: Cell Count EC50.
Experiment [6] concerns CaOV3. The settings on record: Homo sapiens, Caov-3, 72 h; CaOV3, Ovarian carcinoma, 3-day incubation; read-out: Cell Count IC50.
For experiment [7], the system named is DMS114. The settings on record: Homo sapiens, DMS-114, 72 h; DMS114, Lung cancer, 3-day incubation; read-out: Cell Count IC50.
Experiment [8] concerns G-401. To be noted: Homo sapiens, 72 h; G-401, Kidney cancer, 3-day incubation; read-out: Cell Count IC50.
Experiment [9] concerns HT-29. The settings on record: Homo sapiens, 72 h; HT-29, Colorectal carcinoma, 3-day incubation; read-out: Cell Count IC50.
The subject of experiment [10] is MEG01. To be noted: Homo sapiens, MEG-01, 72 h; MEG01, Leukemia, 3-day incubation; read-out: Cell Count EC50.
Experiment [11] deals with MHH-PREB-1. To be noted: Homo sapiens, 72 h; MHH-PREB-1, Lymphoma, 3-day incubation; read-out: Cell Count IC50.
The subject of experiment [12] is Mia PaCa-2. The settings on record: Homo sapiens, 72 h; Mia PaCa-2, Pancreatic cancer, 3-day incubation; read-out: Cell Count IC50.
Experiment [13] relates to MV-4-11. To be noted: Homo sapiens, MV4-11, 72 h; MV-4-11, Leukemia, 3-day incubation; read-out: Cell Count IC50.
Experiment [14] deals with SU.86.86. The settings on record: Homo sapiens, 72 h; SU.86.86, Pancreatic cancer, 3-day incubation; read-out: Cell Count IC50.
Experiment [15] has as its system U266B1. The settings on record: 72 h; U266B1, Multiple Myeloma, 3-day incubation; read-out: Cell Count IC50.

pEC50, pIC50: −log10 of the molar value.

For 1 compound, IC50 and EC50 results are on record in patent publication US20190307728A1, “METHODS OF TREATMENT WITH A 2,4,5-TRISUBSTITUTED 1,2,4-TRIAZOLONE” (Bayer Pharma Aktiengesellschaft, priority 2018, published 2019).

The term pIC50 denotes the negative decadic logarithm of the IC50, by convention in mol/L. By pEC50 is commonly meant −log10 of the EC50, conventionally taken in molar units. With `CCn1c(CO)nn(-c2cc(O[C@@H](C)C(F)(F)F)c(C(=O)Nc3c(F)cccc3Cl)cc2F)c1=O` [Example 1, N-(2-chloro-6-fluorophenyl)-4-[4-ethyl-3-(hydroxymethyl)-5-oxo-4,5-dihydro-1H-1,2,4-triazol-1-yl]-5-fluoro-2-{[(2S)-1,1,1-trifluoropropan-2-yl]oxy}benzamide], the pIC50 in experiment [1] was 8.29; in experiment [2] (read-out: Cell Count IC50) it was below 5.00; in experiment [3] (read-out: Cell Count IC50) it was below 5.00; in experiment [6], below 5.00; in [7], below 5.00; in [8], below 5.00. Besides, the pIC50 in [9] is 7.96; in experiment [11] it was 9.08; in [12] it was below 5.00; in experiment [13] it was 8.92; in experiment [14] it was below 5.00; in experiment [15] it was below 5.00. Further, the pEC50 in [2] (read-out: Cell Count EC50) was below 5.00; in [3] (read-out: Cell Count EC50), 8.46; in experiment [4], 9.04; in [5], 9.04; in [10], 9.18.
